{
  "source": "patent US10738028B2",
  "about": "“Spiro three-membered ring, spiro five-membered ring peptide deformylase inhibitor and use thereof in antibacteria and anti-tumor” (priority 2016, dated 2020)",
  "format_in_all_cases": "cell-based",
  "key": {"[1]": {"tested_on": "methicillin-resistant Staphylococcus aureus (MRSA)", "assay": "MIC, two-fold agar dilution (CLSI), clinical isolates", "from_the_text": "(§1) 1. The invention adopts the two-fold agar dilution method recommended by the operating procedure of antimicrobial susceptibility testing set by American Clinical and Laboratory Standards Institute (CLSI) to determine the Minimum Inhibitory Concentration (MIC) of the test samples against the tested strains."}, "[2]": {"tested_on": "Escherichia coli (including ESBLs, non-ESBLs)", "assay": "MIC, two-fold agar dilution (CLSI), clinical isolates", "from_the_text": "as §1"}, "[3]": {"tested_on": "Moraxella catarrhalis (BCA)", "assay": "MIC, two-fold agar dilution (CLSI), clinical isolates", "from_the_text": "as §1"}, "[4]": {"tested_on": "Enterococcus faecium (EFM)", "assay": "MIC, two-fold agar dilution (CLSI), clinical isolates", "from_the_text": "as §1"}, "[5]": {"tested_on": "methicillin-resistant Staphylococcus epidermidis (MRSE)", "assay": "MIC, two-fold agar dilution (CLSI), clinical isolates", "from_the_text": "as §1"}, "[6]": {"tested_on": "methicillin-sensitive Staphylococcus aureus (MSSA)", "assay": "MIC, two-fold agar dilution (CLSI), clinical isolates", "from_the_text": "as §1"}, "[7]": {"tested_on": "Streptococcus pneoumoniae (SPN)", "assay": "MIC, two-fold agar dilution (CLSI), clinical isolates", "from_the_text": "as §1"}, "[8]": {"tested_on": "methicillin-sensitive Staphylococcus epidermidis (MSSE)", "assay": "MIC, two-fold agar dilution (CLSI), clinical isolates", "from_the_text": "as §1"}, "[9]": {"tested_on": "Enterococcus faecalis (EFA)", "assay": "MIC, two-fold agar dilution (CLSI), clinical isolates", "from_the_text": "as §1"}, "[10]": {"tested_on": "HCT-116 colorectal cancer cell line", "assay": "CCK-8 proliferation inhibition", "conditions": "Homo sapiens, HCT-116, 72 h, concentration of 30 μM; 72 hours; CCK-8; read-out: HCT116 inhibition rate/%", "procedure": "(1) HCT-116 colorectal cancer cell line, A549 lung cancer cell line, MGC-803 gastric cancer cell line, BEL-7402 liver cancer cell line, Jurkat T cell leukemia cell line, HL60 acute myeloid leukemia cell line, Hela cervical cancer cell line, MCF-7 breast cancer cell line, PC3 prostate cancer cell line and SAOS-2 osteosarcoma cell line were made into single cell suspension, 180 μL of which was inoculated into 96-well culture plate, which was cultured overnight in CO2 incubator (37° C., 5% CO2, 95% air).\n(2) Each of the spiro three-membered ring, spiro five membered ring peptide deformylase inhibitors was dissolved in DMSO, and was further formulated into drug solution with required different final concentration using corresponding cell culture medium. The drug solutions were added to the above cells respectively (20 μL/well), with the control group added with 1‰ DMSO, and cultured in a CO2 incubator for 72 hours.\n(3) After incubation for 72 hours, the culture solution was decanted, and 100 μL of 1:10 diluted CCK-8 solution was added.\nWherein, in step (1), the concentration of the single cell suspension was 2000 cells/well.\nWherein, in step (2), HCT-116 cells were cultured in McCoy's 5A medium (containing 10% newborn bovine serum, 1% double antibody); A549 and PC3 cells were cultured in F12 medium (containing 10% newborn bovine serum, 1% double antibody); MGC-803, BEL-7402, SAOS-2, Jurkat and HL60 cells were cultured in 1640 medium (containing 10% newborn bovine serum, 1% double antibody); and MCF-7 and Hela cells were cultured in DMEM high glucose medium (containing 10% newborn bovine serum, 1% double antibody)."}},
  "data": [
    {"smiles": "O=C(C[C@@H](CC1CCCC1)C(=O)N1CC2(CC2)C[C@H]1C(=O)Nc1ncco1)NO", "note": "[Example 69]", "values": [
      {"measurement": "Anti-bacterial activity (MIC), strain MRSA 15-1", "setting": "[1]; clinical isolate MRSA 15-1", "value": 2, "unit": "µg/mL"},
      {"measurement": "Anti-bacterial activity (MIC), strain MRSA 15-2", "setting": "[1]; clinical isolate MRSA 15-2", "value": 8, "unit": "µg/mL"},
      {"measurement": "Anti-bacterial activity (MIC), strain MRSA 15-3", "setting": "[1]; clinical isolate MRSA 15-3", "value": 2, "unit": "µg/mL"},
      {"measurement": "Anti-bacterial activity (MIC), strain MRSA 15-4", "setting": "[1]; clinical isolate MRSA 15-4", "value": 8, "unit": "µg/mL"},
      {"measurement": "Anti-bacterial activity (MIC), strain ECO+ 15-1", "setting": "[2]; clinical isolate ECO+ 15-1", "value": 32, "unit": "µg/mL"},
      {"measurement": "Anti-bacterial activity (MIC), strain ECO+ 15-2", "setting": "[2]; clinical isolate ECO+ 15-2", "value": 32, "unit": "µg/mL"},
      {"measurement": "Anti-bacterial activity (MIC), strain ECO+ 15-3", "setting": "[2]; clinical isolate ECO+ 15-3", "value": 32, "unit": "µg/mL"},
      {"measurement": "Anti-bacterial activity (MIC), strain ECO+ 15-4", "setting": "[2]; clinical isolate ECO+ 15-4", "value": "> 32", "unit": "µg/mL"},
      {"measurement": "Anti-bacterial activity (MIC), strain ECO− 15-1", "setting": "[2]; clinical isolate ECO− 15-1", "value": 32, "unit": "µg/mL"},
      {"measurement": "Anti-bacterial activity (MIC), strain ECO− 15-2", "setting": "[2]; clinical isolate ECO− 15-2", "value": 32, "unit": "µg/mL"},
      {"measurement": "Anti-bacterial activity (MIC), strain ECO− 15-3", "setting": "[2]; clinical isolate ECO− 15-3", "value": 32, "unit": "µg/mL"},
      {"measurement": "Anti-bacterial activity (MIC), strain ECO− 15-4", "setting": "[2]; clinical isolate ECO− 15-4", "value": 32, "unit": "µg/mL"},
      {"measurement": "Anti-bacterial activity (MIC)", "setting": "[3]; strain BCA 14-1", "value": "> 32", "unit": "µg/mL"},
      {"measurement": "Anti-bacterial activity (MIC)", "setting": "[3]; strain BCA 14-4", "value": "> 32", "unit": "µg/mL"},
      {"measurement": "Anti-bacterial activity (MIC)", "setting": "[3]; strain BCA 14-5", "value": 8, "unit": "µg/mL"},
      {"measurement": "Anti-bacterial activity (MIC)", "setting": "[3]; strain BCA 14-6", "value": "> 32", "unit": "µg/mL"},
      {"measurement": "Anti-bacterial activity (MIC)", "setting": "[3]; strain BCA 14-7", "value": "> 32", "unit": "µg/mL"},
      {"measurement": "Anti-bacterial activity (MIC)", "setting": "[3]; strain BCA 14-8", "value": "> 32", "unit": "µg/mL"},
      {"measurement": "Anti-bacterial activity (MIC)", "setting": "[3]; strain BCA 14-10", "value": 4, "unit": "µg/mL"},
      {"measurement": "Anti-bacterial activity (MIC)", "setting": "[4]; strain EFM 15-1", "value": "> 32", "unit": "µg/mL"},
      {"measurement": "Anti-bacterial activity (MIC)", "setting": "[4]; strain EFM 15-2", "value": "> 32", "unit": "µg/mL"},
      {"measurement": "Anti-bacterial activity (MIC)", "setting": "[4]; strain EFM 15-3", "value": "> 32", "unit": "µg/mL"},
      {"measurement": "Anti-bacterial activity (MIC)", "setting": "[4]; strain EFM 15-4", "value": "> 32", "unit": "µg/mL"},
      {"measurement": "Anti-bacterial activity (MIC)", "setting": "[4]; strain EFM 15-5", "value": 8, "unit": "µg/mL"},
      {"measurement": "Anti-bacterial activity (MIC)", "setting": "[4]; strain EFM 15-6", "value": 8, "unit": "µg/mL"},
      {"measurement": "Anti-bacterial activity (MIC), strain MRSE 15-1", "setting": "[5]; clinical isolate MRSE 15-1", "value": 8, "unit": "µg/mL"},
      {"measurement": "Anti-bacterial activity (MIC), strain MRSE 15-2", "setting": "[5]; clinical isolate MRSE 15-2", "value": 8, "unit": "µg/mL"},
      {"measurement": "Anti-bacterial activity (MIC), strain MRSE 15-3", "setting": "[5]; clinical isolate MRSE 15-3", "value": 8, "unit": "µg/mL"},
      {"measurement": "Anti-bacterial activity (MIC), strain MRSE 15-7", "setting": "[5]; clinical isolate MRSE 15-7", "value": 8, "unit": "µg/mL"},
      {"measurement": "Anti-bacterial activity (MIC), strain MSSA 15-3", "setting": "[6]; clinical isolate MSSA 15-3", "value": 8, "unit": "µg/mL"},
      {"measurement": "Anti-bacterial activity (MIC), strain MSSA 15-4", "setting": "[6]; clinical isolate MSSA 15-4", "value": 2, "unit": "µg/mL"},
      {"measurement": "Anti-bacterial activity (MIC), strain MSSA 15-5", "setting": "[6]; clinical isolate MSSA 15-5", "value": 2, "unit": "µg/mL"},
      {"measurement": "Anti-bacterial activity (MIC), strain MSSA 15-6", "setting": "[6]; clinical isolate MSSA 15-6", "value": "> 32", "unit": "µg/mL"},
      {"measurement": "Anti-bacterial activity (MIC)", "setting": "[7]; strain SPN 16-2", "value": 2, "unit": "µg/mL"},
      {"measurement": "Anti-bacterial activity (MIC)", "setting": "[7]; strain SPN 16-4", "value": 1, "unit": "µg/mL"},
      {"measurement": "Anti-bacterial activity (MIC), strain MSSE 15-3", "setting": "[8]; clinical isolate MSSE 15-3", "value": 1, "unit": "µg/mL"},
      {"measurement": "Anti-bacterial activity (MIC), strain MSSE 15-4", "setting": "[8]; clinical isolate MSSE 15-4", "value": 8, "unit": "µg/mL"},
      {"measurement": "Anti-bacterial activity (MIC), strain MSSE 15-5", "setting": "[8]; clinical isolate MSSE 15-5", "value": 8, "unit": "µg/mL"},
      {"measurement": "Anti-bacterial activity (MIC), strain MSSE 15-6", "setting": "[8]; clinical isolate MSSE 15-6", "value": 2, "unit": "µg/mL"},
      {"measurement": "Anti-bacterial activity (MIC)", "setting": "[9]; strain EFA 15-1", "value": "> 32", "unit": "µg/mL"},
      {"measurement": "Anti-bacterial activity (MIC)", "setting": "[9]; strain EFA 15-2", "value": "> 32", "unit": "µg/mL"},
      {"measurement": "Anti-bacterial activity (MIC)", "setting": "[9]; strain EFA 15-3", "value": "> 32", "unit": "µg/mL"},
      {"measurement": "Anti-bacterial activity (MIC)", "setting": "[9]; strain EFA 15-4", "value": "> 32", "unit": "µg/mL"},
      {"measurement": "Anti-bacterial activity (MIC)", "setting": "[9]; strain EFA 15-5", "value": "> 32", "unit": "µg/mL"},
      {"measurement": "Anti-bacterial activity (MIC)", "setting": "[9]; strain EFA 15-6", "value": "> 32", "unit": "µg/mL"},
      {"measurement": "Anti-bacterial activity (MIC)", "setting": "[9]; strain EFA 15-9", "value": "> 32", "unit": "µg/mL"},
      {"measurement": "inhibition at 30 µM", "setting": "[10]", "value": 15, "unit": "%"}
    ]}
  ]
}
